Source: PubChem BioAssay (NCI)
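In this assay, cells in 96-well plates receive the compound at five concentrations for 48 hours. Endpoints are linearly interpolated between the surrounding concentrations. GI50 marks 50% less growth. The concentration for full growth arrest is given as TGI.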

Assays:
Test in all cases: inhibition of tumour cell growth, NCI panel, 48 h
MOLT-4 leukemia = test system: MOLT-4 leukemia
NCI-H23 lung = test system: NCI-H23 lung
HS 578T breast = test system: HS 578T breast
OVCAR-3 ovarian = test system: OVCAR-3 ovarian
HT29 colon = test system: HT29 colon
SNB-19 CNS = test system: SNB-19 CNS
DU-145 prostate = test system: DU-145 prostate
A549 NSCLC = test system: A549 NSCLC
SF-295 CNS = test system: SF-295 CNS
OVCAR-4 ovarian = test system: OVCAR-4 ovarian
HOP-62 NSCLC = test system: HOP-62 NSCLC
SW-620 colon = test system: SW-620 colon
A498 renal = test system: A498 renal
IGROV1 ovarian = test system: IGROV1 ovarian
U251 CNS = test system: U251 CNS
EKVX NSCLC = test system: EKVX NSCLC
MDA-MB-435 = test system: MDA-MB-435
UO-31 renal = test system: UO-31 renal
ACHN renal = test system: ACHN renal
SR leukemia = test system: SR leukemia
PC-3 prostate = test system: PC-3 prostate
SNB-75 CNS = test system: SNB-75 CNS
MDA-MB-231 breast = test system: MDA-MB-231 breast
NCI-H522 lung = test system: NCI-H522 lung
TK-10 renal = test system: TK-10 renal
786-0 renal = test system: 786-0 renal
M14 melanoma = test system: M14 melanoma
HL-60(TB) leukemia = test system: HL-60(TB) leukemia
T-47D breast = test system: T-47D breast
K-562 leukemia = test system: K-562 leukemia
MCF7 breast = test system: MCF7 breast
SK-MEL-28 melanoma = test system: SK-MEL-28 melanoma
SF-268 CNS = test system: SF-268 CNS
CAKI-1 renal = test system: CAKI-1 renal
LOX IMVI melanoma = test system: LOX IMVI melanoma
SK-OV-3 ovarian = test system: SK-OV-3 ovarian
NCI-H226 lung = test system: NCI-H226 lung
UACC-62 melanoma = test system: UACC-62 melanoma
BT-549 breast = test system: BT-549 breast
COLO 205 colon = test system: COLO 205 colon
MALME-3M melanoma = test system: MALME-3M melanoma
UACC-257 melanoma = test system: UACC-257 melanoma
RXF 393 renal = test system: RXF 393 renal
OVCAR-8 ovarian = test system: OVCAR-8 ovarian
CCRF-CEM leukemia = test system: CCRF-CEM leukemia
HOP-92 NSCLC = test system: HOP-92 NSCLC
NCI-H460 lung = test system: NCI-H460 lung
SK-MEL-5 melanoma = test system: SK-MEL-5 melanoma
HCT-15 colon = test system: HCT-15 colon
MDA-MB-468 breast = test system: MDA-MB-468 breast
RPMI-8226 leukemia = test system: RPMI-8226 leukemia
SF-539 CNS = test system: SF-539 CNS
SK-MEL-2 melanoma = test system: SK-MEL-2 melanoma
SN12C renal = test system: SN12C renal
KM12 colon = test system: KM12 colon
HCC-2998 colon = test system: HCC-2998 colon
OVCAR-5 ovarian = test system: OVCAR-5 ovarian
HCT-116 colon = test system: HCT-116 colon

COc1ccc(NC2=C(I)C(=O)C(C)=C(C)C2=O)cc1
GI50 (MOLT-4 leukemia): 0.625 µM
TGI (MOLT-4 leukemia): 32.6 µM
GI50 (NCI-H23 lung): 4.11 µM
TGI (NCI-H23 lung): 17.6 µM
GI50 (HS 578T breast): 14.5 µM
TGI (HS 578T breast): 50.2 µM
GI50 (OVCAR-3 ovarian): 2.75 µM
TGI (OVCAR-3 ovarian): 9.45 µM
GI50 (HT29 colon): 18.2 µM
TGI (HT29 colon): 48.8 µM
GI50 (SNB-19 CNS): 15.4 µM
TGI (SNB-19 CNS): 34.1 µM
GI50 (DU-145 prostate): 16.1 µM
TGI (DU-145 prostate): 30.7 µM
GI50 (A549 NSCLC): 16.9 µM
TGI (A549 NSCLC): 39 µM
GI50 (SF-295 CNS): 13.9 µM
TGI (SF-295 CNS): 28.4 µM
GI50 (OVCAR-4 ovarian): 3.98 µM
TGI (OVCAR-4 ovarian): 15.2 µM
GI50 (HOP-62 NSCLC): 14.9 µM
TGI (HOP-62 NSCLC): 36.6 µM
GI50 (SW-620 colon): 11.7 µM
TGI (SW-620 colon): 29.2 µM
GI50 (A498 renal): 24.6 µM
TGI (A498 renal): 68.3 µM
GI50 (IGROV1 ovarian): 4.37 µM
TGI (IGROV1 ovarian): 17.3 µM
GI50 (U251 CNS): 11.5 µM
TGI (U251 CNS): 24.7 µM
GI50 (EKVX NSCLC): 4.25 µM
TGI (EKVX NSCLC): 16.7 µM
GI50 (MDA-MB-435): 1.82 µM
TGI (MDA-MB-435): 3.37 µM
GI50 (UO-31 renal): 6.03 µM
TGI (UO-31 renal): 19.8 µM
GI50 (ACHN renal): 4.61 µM
TGI (ACHN renal): 17.5 µM
GI50 (SR leukemia): 1.07 µM
TGI (SR leukemia): > 100 µM
GI50 (PC-3 prostate): 3.42 µM
TGI (PC-3 prostate): > 100 µM
GI50 (SNB-75 CNS): 15.9 µM
TGI (SNB-75 CNS): 35.6 µM
GI50 (MDA-MB-231 breast): 2.37 µM
TGI (MDA-MB-231 breast): 8.48 µM
GI50 (NCI-H522 lung): 6.54 µM
TGI (NCI-H522 lung): 21 µM
GI50 (TK-10 renal): 17 µM
TGI (TK-10 renal): 37.2 µM
GI50 (786-0 renal): 8.56 µM
TGI (786-0 renal): 27.4 µM
GI50 (M14 melanoma): 15 µM
TGI (M14 melanoma): 28.7 µM
GI50 (HL-60(TB) leukemia): 0.341 µM
TGI (HL-60(TB) leukemia): 1.54 µM
GI50 (T-47D breast): 1.98 µM
TGI (T-47D breast): 16.3 µM
GI50 (K-562 leukemia): 2.99 µM
TGI (K-562 leukemia): > 100 µM
GI50 (MCF7 breast): 2.71 µM
TGI (MCF7 breast): 10 µM
GI50 (SK-MEL-28 melanoma): 14.3 µM
TGI (SK-MEL-28 melanoma): 28.9 µM
GI50 (SF-268 CNS): 12.3 µM
TGI (SF-268 CNS): 55.6 µM
GI50 (CAKI-1 renal): 3.89 µM
TGI (CAKI-1 renal): 22 µM
GI50 (LOX IMVI melanoma): 2.37 µM
TGI (LOX IMVI melanoma): 8.8 µM
GI50 (SK-OV-3 ovarian): 18 µM
TGI (SK-OV-3 ovarian): 62.9 µM
GI50 (NCI-H226 lung): 12.5 µM
TGI (NCI-H226 lung): 28.9 µM
GI50 (UACC-62 melanoma): 9.68 µM
TGI (UACC-62 melanoma): 23.8 µM
GI50 (BT-549 breast): 12.4 µM
TGI (BT-549 breast): 25.8 µM
GI50 (COLO 205 colon): 14.8 µM
TGI (COLO 205 colon): 28 µM
GI50 (MALME-3M melanoma): 11.6 µM
TGI (MALME-3M melanoma): 23.9 µM
GI50 (UACC-257 melanoma): 2.42 µM
TGI (UACC-257 melanoma): 8 µM
GI50 (RXF 393 renal): 3.6 µM
TGI (RXF 393 renal): 14.8 µM
GI50 (OVCAR-8 ovarian): 2.26 µM
TGI (OVCAR-8 ovarian): 6.54 µM
GI50 (CCRF-CEM leukemia): 1.36 µM
TGI (CCRF-CEM leukemia): 35.4 µM
GI50 (HOP-92 NSCLC): 7.46 µM
TGI (HOP-92 NSCLC): 26.2 µM
GI50 (NCI-H460 lung): 15.7 µM
TGI (NCI-H460 lung): 32.8 µM
GI50 (SK-MEL-5 melanoma): 4.74 µM
TGI (SK-MEL-5 melanoma): 18.2 µM
GI50 (HCT-15 colon): 13.5 µM
TGI (HCT-15 colon): 27.9 µM
GI50 (MDA-MB-468 breast): 0.416 µM
TGI (MDA-MB-468 breast): 2.49 µM
GI50 (RPMI-8226 leukemia): 3.08 µM
TGI (RPMI-8226 leukemia): 20.2 µM
GI50 (SF-539 CNS): 2.5 µM
TGI (SF-539 CNS): 7.23 µM
GI50 (SK-MEL-2 melanoma): 3.14 µM
TGI (SK-MEL-2 melanoma): 12.4 µM
GI50 (SN12C renal): 4.04 µM
TGI (SN12C renal): 15.5 µM
GI50 (KM12 colon): 6.96 µM
TGI (KM12 colon): 42 µM
GI50 (HCC-2998 colon): 16.7 µM
TGI (HCC-2998 colon): 33.5 µM
GI50 (OVCAR-5 ovarian): 11.7 µM
TGI (OVCAR-5 ovarian): 25.6 µM
GI50 (HCT-116 colon): 2.93 µM
TGI (HCT-116 colon): 10.4 µM
